US20260262643A1, “HERBICIDAL BENZOXAZINES” (FMC CORPORATION, priority 2022, published 2026)

What was measured:
barnyardgrass [1] = assay: Test C preemergence; type: in vivo, Echinochloa crusgalli; conditions: 0 to 100 scale (0 no effect, 100 complete control)
How it was run: (§1)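 Pre: seeds in loam/sand, directed soil spray. Post: 1–2 leaf plants, 2–10 cm. Cmpd in non-phytotoxic solvent + surfactant. Greenhouse 10 d; visual rating vs untreated, 0 = none, 100 = complete control.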

blackgrass [2] = assay: Test C preemergence; type: in vivo, Alopecurus myosuroides; conditions: 0 to 100 scale (0 no effect, 100 complete control)
How it was run: as §1

corn [3] = assay: Test C preemergence; type: in vivo, Zea mays; conditions: 0 to 100 scale (0 no effect, 100 complete control)
How it was run: as §1

green foxtail = assay: Test C preemergence; type: in vivo, Setaria viridis; conditions: 0 to 100 scale (0 no effect, 100 complete control)
How it was run: as §1

kochia [4] = assay: Test C preemergence; type: in vivo, Bassia scoparia; conditions: 0 to 100 scale (0 no effect, 100 complete control)
How it was run: as §1

oat, wild [5] = assay: Test C preemergence; type: in vivo, Avena fatua; conditions: 0 to 100 scale (0 no effect, 100 complete control)
How it was run: as §1

pigweed, palmer [6] = assay: Test C preemergence; type: in vivo, Amaranthus palmeri; conditions: 0 to 100 scale (0 no effect, 100 complete control)
How it was run: as §1

ragweed [7] = assay: Test C preemergence; type: in vivo, Ambrosia artemisiifolia; conditions: 0 to 100 scale (0 no effect, 100 complete control)
How it was run: as §1

ryegrass, Italian [8] = assay: Test C preemergence; type: in vivo, Lolium multiflorum; conditions: 0 to 100 scale (0 no effect, 100 complete control)
How it was run: as §1

soybean [9] = assay: Test C preemergence; type: in vivo, Glycine max; conditions: 0 to 100 scale (0 no effect, 100 complete control)
How it was run: as §1

wheat [10] = assay: Test C preemergence; type: in vivo, Triticum aestivum; conditions: 0 to 100 scale (0 no effect, 100 complete control)
How it was run: as §1

barnyardgrass [11] = assay: Test C postemergence; type: in vivo, Echinochloa crusgalli; conditions: 10 days
How it was run: as §1

blackgrass [12] = assay: Test C postemergence; type: in vivo, Alopecurus myosuroides; conditions: 10 days
How it was run: as §1

corn [13] = assay: Test C postemergence; type: in vivo, Zea mays; conditions: 10 days
How it was run: as §1

kochia [14] = assay: Test C postemergence; type: in vivo, Bassia scoparia; conditions: 10 days
How it was run: as §1

oat, wild [15] = assay: Test C postemergence; type: in vivo, Avena fatua; conditions: 10 days
How it was run: as §1

pigweed, palmer [16] = assay: Test C postemergence; type: in vivo, Amaranthus palmeri; conditions: 10 days
How it was run: as §1

ragweed [17] = assay: Test C postemergence; type: in vivo, Ambrosia artemisiifolia; conditions: 10 days
How it was run: as §1

ryegrass, Italian [18] = assay: Test C postemergence; type: in vivo, Lolium multiflorum; conditions: 10 days
How it was run: as §1

soybean [19] = assay: Test C postemergence; type: in vivo, Glycine max; conditions: 10 days
How it was run: as §1

wheat [20] = assay: Test C postemergence; type: in vivo, Triticum aestivum; conditions: 10 days
How it was run: as §1

galium = assay: Test C postemergence; type: in vivo, Galium aparine; conditions: 10 days
How it was run: as §1

horseweed = assay: Test C postemergence; type: in vivo, Erigeron canadensis; conditions: 10 days
How it was run: as §1

barnyardgrass [21] = assay: Test D flooded paddy test; type: in vivo, Echinochloa crus-galli; conditions: 250 g ai/ha, applied to paddy water, visual rating after 13 to 14 days, scale 0 to 100 (0 no effect, 100 complete control)
Method: (§2) Plant species in the flooded paddy test selected from barnyardgrass (Echinochloa crus-galli), ducksalad (Heteranthera limosa), rice (Oryza sativa), and sedge, umbrella (small-flower umbrella sedge, Cyperus difformis) were grown to the 2-leaf stage for testing. At time of treatment, test pots were flooded to 3 cm above the soil surface, treated by application of test compounds directly to the paddy water, and then maintained at that water depth for the duration of the test. Treated plants and controls were maintained in a greenhouse for 13 to 14 days, after which time all species were compared to controls and visually evaluated. Plant response ratings, summarized in Table D, are based on a scale of 0 to 100 where 0 is no effect and 100 is complete control. A dash (-) response means no test result.

ducksalad = assay: Test D flooded paddy test; type: in vivo, Heteranthera limosa; conditions: 250 g ai/ha, applied to paddy water, visual rating after 13 to 14 days, scale 0 to 100 (0 no effect, 100 complete control)
Method: as §2

rice = assay: Test D flooded paddy test; type: in vivo, Oryza sativa; conditions: 250 g ai/ha, applied to paddy water, visual rating after 13 to 14 days, scale 0 to 100 (0 no effect, 100 complete control)
Method: as §2

sedge, umbrella = assay: Test D flooded paddy test; type: in vivo, Cyperus difformis; conditions: 250 g ai/ha, applied to paddy water, visual rating after 13 to 14 days, scale 0 to 100 (0 no effect, 100 complete control)
Method: as §2

[22] = Preemergence, 500 g ai/ha, visual rating after 10 days
[23] = Test C, preemergence, 125 g ai/ha
[24] = 125 g ai/ha, postemergence, 0 to 100 scale, 0 no effect, 100 complete control
[25] = Postemergence, 500 g ai/ha, visual 0 to 100 scale (0 no effect, 100 complete control)

Cc1ccc(-n2cnc(C(C)(C)O)n2)cc1C(=O)N1C[C@H](C)Oc2c(C)cccc21 [Compound 256]
Plant response rating, Barnyardgrass (barnyardgrass [1]; [22]): 100 | Barnyardgrass plant response rating (barnyardgrass [1]; [23]): 100 | Plant response rating, Blackgrass (blackgrass [2]; [22]): 90 | Blackgrass plant response rating (blackgrass [2]; [23]): 70 | Plant response rating, Corn (corn [3]; [22]): 90 | Corn plant response rating (corn [3]; [23]): 50 | Plant response rating, Foxtail, Green (green foxtail; [22]): 100 | Foxtail, Green plant response rating (green foxtail; [23]): 100 | Plant response rating, Kochia (kochia [4]; [22]): 90 | Kochia plant response rating (kochia [4]; [23]): 80 | Plant response rating, Oat, Wild (oat, wild [5]; [22]): 90 | Oat, Wild plant response rating (oat, wild [5]; [23]): 90 | Plant response rating, Pigweed, Palmer (pigweed, palmer [6]; [22]): 100 | Pigweed, Palmer plant response rating (pigweed, palmer [6]; [23]): 100 | Plant response rating, Ragweed (ragweed [7]; [22]): 90 | Ragweed plant response rating (ragweed [7]; [23]): 70 | Plant response rating, Ryegrass, Italian (ryegrass, Italian [8]; [22]): 100 | Ryegrass, Italian plant response rating (ryegrass, Italian [8]; [23]): 90 | Plant response rating, Soybean (soybean [9]; [22]): 90 | Soybean plant response rating (soybean [9]; [23]): 100 | Plant response rating, Wheat (wheat [10]; [22]): 90 | Wheat plant response rating (wheat [10]; [23]): 80 | Plant response rating, Barnyardgrass (barnyardgrass [11]; [24]): 60 | Plant response rating, Barnyardgrass (barnyardgrass [11]; [25]): 90 | Plant response rating, Blackgrass (blackgrass [12]; [24]): 90 | Plant response rating, Blackgrass (blackgrass [12]; [25]): 90 | Plant response rating, Corn (corn [13]; [24]): 90 | Plant response rating, Corn (corn [13]; [25]): 90 | Plant response rating, Kochia (kochia [14]; [24]): 60 | Plant response rating, Kochia (kochia [14]; [25]): 80 | Plant response rating, Oat, Wild (oat, wild [15]; [24]): 90 | Plant response rating, Oat, Wild (oat, wild [15]; [25]): 90 | Plant response rating, Pigweed, Palmer (pigweed, palmer [16]; [24]): 80 | Plant response rating, Pigweed, Palmer (pigweed, palmer [16]; [25]): 100 | Plant response rating, Ragweed (ragweed [17]; [24]): 70 | Plant response rating, Ragweed (ragweed [17]; [25]): 80 | Plant response rating, Ryegrass, Italian (ryegrass, Italian [18]; [24]): 90 | Plant response rating, Ryegrass, Italian (ryegrass, Italian [18]; [25]): 100 | Plant response rating, Soybean (soybean [19]; [24]): 100 | Plant response rating, Soybean (soybean [19]; [25]): 100 | Plant response rating, Wheat (wheat [20]; [24]): 80 | Plant response rating, Wheat (wheat [20]; [25]): 90 | Plant response rating, Galium (galium; [24]): 100 | Plant response rating, Galium (galium; [25]): 100 | Plant response rating, Horseweed (horseweed; [24]): 30 | Plant response rating, Horseweed (horseweed; [25]): 40 | Plant response rating, Barnyardgrass (Flood) (barnyardgrass [21]): 45 | Plant response rating, Ducksalad (Flood) (ducksalad): 98 | Plant response rating, Rice (Flood) (rice): 35 | Plant response rating, Sedge, Umbrella (Flood) (sedge, umbrella): 98
